Consider 29 molecules from ChEMBL document CHEMBL1201862, “PubChem BioAssay data set” (2004).

Calls of active or inactive are those of the source. A value given as a limit tells only on which side of the number the result lay.

Cytochrome P450 2C19, sequence (P33261 whole entry): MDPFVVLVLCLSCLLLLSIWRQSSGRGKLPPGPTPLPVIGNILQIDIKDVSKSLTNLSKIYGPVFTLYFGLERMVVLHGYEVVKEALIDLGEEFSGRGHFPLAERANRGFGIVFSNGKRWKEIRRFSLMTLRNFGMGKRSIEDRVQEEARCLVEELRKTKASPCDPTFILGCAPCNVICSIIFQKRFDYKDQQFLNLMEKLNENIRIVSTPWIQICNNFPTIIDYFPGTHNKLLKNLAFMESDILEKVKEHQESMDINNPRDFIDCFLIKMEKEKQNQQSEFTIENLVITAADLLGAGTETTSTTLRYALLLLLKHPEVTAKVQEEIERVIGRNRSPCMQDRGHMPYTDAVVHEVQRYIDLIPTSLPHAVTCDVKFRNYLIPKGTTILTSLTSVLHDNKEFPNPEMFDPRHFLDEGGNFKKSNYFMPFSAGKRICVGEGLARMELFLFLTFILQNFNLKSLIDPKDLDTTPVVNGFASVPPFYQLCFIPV
Cytochrome P450 3A4, sequence (P08684 whole entry): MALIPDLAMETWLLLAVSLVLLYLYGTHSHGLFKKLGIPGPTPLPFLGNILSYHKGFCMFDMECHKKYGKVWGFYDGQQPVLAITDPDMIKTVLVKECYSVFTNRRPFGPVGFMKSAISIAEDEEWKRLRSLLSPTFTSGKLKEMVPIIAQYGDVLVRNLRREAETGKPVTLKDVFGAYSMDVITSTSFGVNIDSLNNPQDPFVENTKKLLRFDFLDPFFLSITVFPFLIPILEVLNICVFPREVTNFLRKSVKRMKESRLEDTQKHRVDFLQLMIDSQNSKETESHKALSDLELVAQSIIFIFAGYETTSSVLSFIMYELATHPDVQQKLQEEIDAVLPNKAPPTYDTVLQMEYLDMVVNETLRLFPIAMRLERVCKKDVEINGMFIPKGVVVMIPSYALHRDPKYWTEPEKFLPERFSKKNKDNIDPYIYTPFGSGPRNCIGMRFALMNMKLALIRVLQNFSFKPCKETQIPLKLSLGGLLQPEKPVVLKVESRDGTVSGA

The first data set has as its target Cytochrome P450 2C19 (Homo sapiens, UniProt P33261). The data set is described as follows: Cytochrome panel assay with activity outcomes. Panel member name: p450-cyp2c19 Compounds with AC50 equal or less than 10 uM are considered active. Type of data set: functional.
Conditions: not given
Consider `CC(=O)Nc1c(C(=O)N2CCOCC2)cnn1-c1ccc(C)c(C)c1`, for which the AC50 (commonly the concentration giving half of the maximal activity seen) is reported as “inconclusive”.

On to `CNc1ncncc1-c1ccccc1CN(C)C`, for which the AC50 result is listed as “inconclusive”.

Staying with this data set, now noted: read-out: AC50.
Regarding `COc1ccc([N+](=O)[O-])cc1COc1ccc2c(-c3ccccc3)cc(=O)oc2c1`, the AC50 is 3.55 µM (inconclusive).

As for `Cc1ccc(SCN2CCCCC2)cc1.O=C(Cl)c1ccc([N+](=O)[O-])cc1`, the AC50 is 2.51 µM (inconclusive).

On to `COC(=O)N1CCC2(CCCN(Cc3ccc(C#N)cc3)C2)CC1`, for which the concentration at half-maximal activity (AC50) was 7.94 µM (inconclusive).

For `O=C1c2ccccc2C(=O)N1CC1CCCO1` (stereo not drawn), the half-maximal activity concentration (AC50) is 0.355 µM (inconclusive).

Another data set has as its target Cytochrome P450 3A4 (Homo sapiens, UniProt P08684).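 Note: CYP3A4 tested as one member of a cytochrome P450 panel screen.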
Conditions: not given
With `Cc1noc(C)c1-c1nccc(N(C)C)n1`, the AC50 was 31.6 µM (inconclusive).

For `CC(=O)Nc1c(C(=O)N2CCOCC2)cnn1-c1ccc(C)c(C)c1`, the AC50 was 3.98 µM (inconclusive).

`O=C1[C@H]2[C@H]3[C@H](O)[C@H](O)C/C(=N/OC[C@@H](O)COCc4ccco4)[C@H]3CC[C@@H]2C(=O)N1c1cccc(Oc2ccccc2)c1`: the AC50 was 3.16 µM (inconclusive).

Regarding `CN1CCN(c2ncc3nc(-c4cc(F)cc(F)c4)c(=O)n(C4CC4)c3n2)CC1`, the AC50 was 39.8 µM (inconclusive).

For `CNc1ccnc(-c2ccccc2OC)n1`, the AC50 is 31.6 µM (inconclusive).

Turning to `CC(=O)[C@@H]1CC[C@@H]2[C@@H]3CC=C4C[C@H](OS(=O)(=O)O)CC[C@@]4(C)[C@H]3CC[C@]21C`, the half-maximal activity concentration (AC50) is 12.6 µM (inconclusive).

With `CO[C@H]1COC(=O)CCC[C@@H](C)[C@H](OC)COC(=O)[C@H]2CCCN2C(=O)C/C=C\[C@@H]1C`, the AC50 is 5.01 µM (inconclusive).

For the molecule `CCOC(=O)c1[nH]c(C)c(C(=O)N2CCC3(CC2)OCCO3)c1C`, the AC50 is 22.4 µM (inconclusive).

For the molecule `COc1cccc(NC(=O)Cc2c(C(=O)O)[nH]c3ccccc23)c1`, the AC50 was 15.8 µM (inconclusive).

In the case of `CC(=O)OC[C@@H]1O[C@H](C/C=N\O[C@@H](C)CN2CCCc3nc(C)c(C)cc32)C=C[C@@H]1OC(C)=O`, the AC50 was 3.98 µM (inconclusive).

For the molecule `COC(=O)N1CCC2(CCCN(Cc3ccc(C#N)cc3)C2)CC1`, the AC50 was 15.8 µM (inconclusive).

In another data set the target is T1, Corticotropin-releasing factor receptor 2/Corticotropin-releasing factor-binding protein (Homo sapiens, UniProt P24387+Q13324).
T1 sequence (Q13324 whole entry): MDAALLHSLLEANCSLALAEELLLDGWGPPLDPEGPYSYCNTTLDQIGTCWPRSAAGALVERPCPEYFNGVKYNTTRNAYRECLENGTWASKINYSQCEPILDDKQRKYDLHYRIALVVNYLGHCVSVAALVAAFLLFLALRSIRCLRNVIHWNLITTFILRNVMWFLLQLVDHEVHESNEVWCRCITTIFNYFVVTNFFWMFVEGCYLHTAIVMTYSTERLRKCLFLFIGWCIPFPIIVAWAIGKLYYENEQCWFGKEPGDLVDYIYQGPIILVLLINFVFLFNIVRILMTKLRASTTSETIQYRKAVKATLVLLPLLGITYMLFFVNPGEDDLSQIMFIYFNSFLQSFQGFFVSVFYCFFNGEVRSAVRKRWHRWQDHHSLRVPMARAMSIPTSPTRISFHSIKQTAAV
T1 sequence (P24387 whole entry): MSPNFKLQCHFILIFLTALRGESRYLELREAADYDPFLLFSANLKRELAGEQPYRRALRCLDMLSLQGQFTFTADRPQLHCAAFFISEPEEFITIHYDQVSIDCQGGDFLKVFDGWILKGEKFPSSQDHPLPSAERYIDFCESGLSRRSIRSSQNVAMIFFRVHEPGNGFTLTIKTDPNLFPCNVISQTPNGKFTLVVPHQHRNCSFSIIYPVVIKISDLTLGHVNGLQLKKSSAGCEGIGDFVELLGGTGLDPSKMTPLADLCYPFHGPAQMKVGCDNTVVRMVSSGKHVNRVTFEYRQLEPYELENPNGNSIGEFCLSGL
The data set is described as follows: activators of CRF receptor 2 with binding protein – uHTS hits, confirmation (AID 602473). Type of data set: functional. The following applies: read-out: EC50_Mean.
As to `CCc1ccc(NC(=O)C(CC)c2ccccc2)cc1` (stereo not drawn), the EC50 is 10.4 µM (active).

As for `O=C(Nc1cc(C(F)(F)F)ccc1Cl)C(Sc1cccc[n+]1[O-])c1ccccc1` (stereo not drawn), the EC50 is > 53 µM (inactive).

For `CCOc1ccc(C(C)NC(=S)NCc2ccc(Cl)cc2)cc1` (stereo not drawn), the EC50 was 14.6 µM (active).

Regarding `Cc1cc(C)c(OCC(=O)Nc2ccccc2N2CCOCC2)c(C)c1`, the EC50 was > 53 µM (inactive).

On to `CCCNS(=O)(=O)c1ccc(Oc2ncc(C(F)(F)F)cc2Cl)cc1`, for which the EC50 is > 53 µM (inactive).

On to `CC(CNC(=O)c1ccc(NC2=NC3CS(=O)(=O)CC3S2)cc1)c1ccccc1` (stereo not drawn), for which the EC50 was > 53 µM (inactive).

Take `O=C(NCC(c1ccco1)N1CCCC1)c1cc2cc(Cl)ccc2o1` (stereo not drawn): the EC50 was > 53 µM (inactive).

For another data set, the target named is Cytochrome P450 2C9 (Homo sapiens, UniProt P11712).
Cytochrome P450 2C9, sequence (P11712 whole entry): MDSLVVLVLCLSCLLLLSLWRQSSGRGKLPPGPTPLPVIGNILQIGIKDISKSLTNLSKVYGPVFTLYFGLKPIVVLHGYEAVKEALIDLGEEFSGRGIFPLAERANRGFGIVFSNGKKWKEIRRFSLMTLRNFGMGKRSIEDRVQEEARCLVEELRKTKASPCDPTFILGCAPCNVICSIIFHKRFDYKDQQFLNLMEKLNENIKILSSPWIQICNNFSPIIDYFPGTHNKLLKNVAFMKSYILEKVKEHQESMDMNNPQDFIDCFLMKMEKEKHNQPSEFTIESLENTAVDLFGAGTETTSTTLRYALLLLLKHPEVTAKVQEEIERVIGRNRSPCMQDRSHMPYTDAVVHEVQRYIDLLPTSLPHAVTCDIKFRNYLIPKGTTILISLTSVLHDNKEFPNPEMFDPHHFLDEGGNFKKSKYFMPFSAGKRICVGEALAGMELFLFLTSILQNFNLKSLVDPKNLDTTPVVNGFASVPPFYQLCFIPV
Conditions: not given
Turning to `COc1ccc(CNC(=O)[C@H]2C[C@@H]2[C@H](NP(=O)(c2ccccc2)c2ccccc2)c2ccccc2)cc1OC`, the AC50 was 25.1 µM (inconclusive).

Regarding `CCCCCC(=O)Nc1cc2nc(O)cc(COC)c2cc1C`, the AC50 is 10 µM (inconclusive).

Consider `Oc1c(CN2CCOCC2)ccc(CN2CCOCC2)c1O`, for which the AC50 was 7.94 µM (inconclusive).

Regarding `COC(=O)[C@@H](NC(=O)Nc1ccc(C(C)=O)cc1)C(C)C`, the AC50 was 3.55 µM (inconclusive).

As for `c1csc(CNc2ncncc2-c2ccoc2)c1`, the AC50 is 0.794 µM (inconclusive).

Take `Cc1cc2cccc(C)c2nc1SCC(=O)N(C)c1nc(-c2ccccc2)cs1`: the AC50 is 2.82 µM (inconclusive).

Regarding `CCOc1cc2[nH]c(=O)n(CCC(=O)NCc3ccc(OC)cc3)c(=O)c2cc1OCC`, the AC50 was 2 µM (inconclusive).

Turning to `COc1cccc(NC(=O)Cc2c(C(=O)O)[nH]c3ccccc23)c1`, the AC50 is 22.4 µM (inconclusive).

With `O=C1c2ccccc2C(=O)N1CC1CCCO1` (stereo not drawn), the AC50 was 0.398 µM (inconclusive).
